Data from ChEMBL document CHEMBL4800722, “Data for DCP probe BI 605906” (2021).

Key:
[1] = biological target: Homeodomain-interacting protein kinase 1 (Homo sapiens) (UniProt Q86Z02); conditions: Compound concentration 1.0 uM
[2] = biological target: 5-hydroxytryptamine receptor 1E (Homo sapiens) (UniProt P28566); conditions: Compound concentration 10.0 uM
[3] = biological target: Phosphatidylinositol 4-phosphate 5-kinase type-1 gamma (Homo sapiens) (UniProt O60331); conditions: Compound concentration 1.0 uM
Phosphatidylinositol 4-phosphate 5-kinase type-1 gamma (Homo sapiens), sequence (O60331 whole entry): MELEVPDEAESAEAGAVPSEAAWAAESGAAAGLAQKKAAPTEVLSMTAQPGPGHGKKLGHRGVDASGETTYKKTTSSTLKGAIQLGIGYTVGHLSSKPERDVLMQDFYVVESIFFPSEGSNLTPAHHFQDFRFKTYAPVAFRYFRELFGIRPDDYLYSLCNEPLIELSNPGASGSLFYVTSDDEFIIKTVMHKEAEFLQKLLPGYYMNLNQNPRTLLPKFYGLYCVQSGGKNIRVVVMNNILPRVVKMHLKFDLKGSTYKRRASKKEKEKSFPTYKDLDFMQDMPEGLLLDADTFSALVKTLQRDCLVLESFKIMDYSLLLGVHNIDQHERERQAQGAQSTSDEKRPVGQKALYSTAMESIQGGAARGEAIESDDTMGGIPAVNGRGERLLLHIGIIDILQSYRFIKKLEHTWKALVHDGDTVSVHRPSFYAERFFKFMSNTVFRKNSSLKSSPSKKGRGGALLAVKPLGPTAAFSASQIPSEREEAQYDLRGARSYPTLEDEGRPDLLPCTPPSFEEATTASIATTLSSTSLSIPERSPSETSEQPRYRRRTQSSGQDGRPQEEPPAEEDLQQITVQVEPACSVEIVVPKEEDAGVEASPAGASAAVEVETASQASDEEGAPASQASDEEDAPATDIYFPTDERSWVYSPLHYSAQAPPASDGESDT

[4] = biological target: Nicotinic Acetylcholine Receptor (Homo sapiens) (UniProt P02708+P07510+P11230+P17787+P30926+P32297+P43681+Q07001+Q15822+Q9UGM1+Q15825+P30532+Q04844+P36544+Q9GZZ6+Q05901); conditions: Compound concentration 10.0 uM
[5] = biological target: cGMP-dependent protein kinase 1 (Homo sapiens) (UniProt Q13976); conditions: Compound concentration 1.0 uM
[6] = biological target: Membrane-associated tyrosine- and threonine-specific cdc2-inhibitory kinase (Homo sapiens) (UniProt Q99640); conditions: Compound concentration 1.0 uM
[7] = biological target: Serine/threonine-protein kinase 38-like (Homo sapiens) (UniProt Q9Y2H1); test: STK38L (NDR2) Invitrogen Lab (UK) kinase screen (BI); conditions: Compound concentration 1.0 uM
[8] = biological target: Protein kinase C gamma type (Homo sapiens) (UniProt P05129); test: PRKCG Invitrogen Lab (UK) kinase screen (BI); conditions: Compound concentration 1.0 uM
[9] = biological target: RAC-beta serine/threonine-protein kinase (Homo sapiens) (UniProt P31751); conditions: Compound concentration 1.0 uM
[10] = biological target: CDK17/Cyclin-Y (Homo sapiens) (UniProt Q00537+Q8ND76); test: CDK17/CYCLIN Y Invitrogen Lab (UK) kinase screen (BI); format: protein-complex assay; conditions: Compound concentration 1.0 uM
[11] = biological target: Mitogen-activated protein kinase kinase kinase 2 (Homo sapiens) (UniProt Q9Y2U5); conditions: Compound concentration 1.0 uM
[12] = biological target: AMPK alpha1/beta1/gamma3 (Homo sapiens) (UniProt Q9Y478+Q13131+Q9UGI9); test: AMPK (A1/B1/G3) Invitrogen Lab (UK) kinase screen (BI); format: protein-complex assay; conditions: Compound concentration 1.0 uM
[13] = biological target: Leucine-rich repeat serine/threonine-protein kinase 2 (Homo sapiens) (UniProt Q5S007); test: LRRK2 Invitrogen Lab (UK) kinase screen (BI); conditions: Compound concentration 1.0 uM
[14] = biological target: Casein kinase II subunit alpha (Homo sapiens) (UniProt P68400)
Casein kinase II subunit alpha (Homo sapiens), sequence (P68400 whole entry, looked up): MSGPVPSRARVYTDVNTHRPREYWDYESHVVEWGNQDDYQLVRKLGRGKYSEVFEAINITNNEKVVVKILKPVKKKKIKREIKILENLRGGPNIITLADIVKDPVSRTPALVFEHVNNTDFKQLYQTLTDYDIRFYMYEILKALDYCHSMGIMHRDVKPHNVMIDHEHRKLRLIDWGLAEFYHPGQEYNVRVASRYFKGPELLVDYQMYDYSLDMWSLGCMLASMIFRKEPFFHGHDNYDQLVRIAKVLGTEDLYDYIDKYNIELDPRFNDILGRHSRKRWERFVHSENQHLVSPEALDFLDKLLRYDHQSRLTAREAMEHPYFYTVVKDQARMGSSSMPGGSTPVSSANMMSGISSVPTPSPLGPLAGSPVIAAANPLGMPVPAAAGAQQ

[15] = biological target: TGF-beta receptor type-1 (Homo sapiens) (UniProt P36897); conditions: Compound concentration 1.0 uM
[16] = biological target: Atypical kinase COQ8A, mitochondrial (Homo sapiens) (UniProt Q8NI60); test: ADCK3 Invitrogen Lab (UK) kinase screen (BI); conditions: Compound concentration 1.0 uM
[17] = biological target: Angiotensin-converting enzyme (Oryctolagus cuniculus) (UniProt P12822); conditions: Compound concentration 10.0 uM
[18] = biological target: Cyclin-dependent kinase 1/cyclin B (Homo sapiens) (UniProt P06493+P14635+Q8WWL7+O95067)
[19] = biological target: Kinase suppressor of Ras 2 (Homo sapiens) (UniProt Q6VAB6); conditions: Compound concentration 1.0 uM
[20] = biological target: Serine/threonine-protein kinase ULK2 (Homo sapiens) (UniProt Q8IYT8); conditions: Compound concentration 1.0 uM
[21] = biological target: Serine/threonine-protein kinase ULK3 (Homo sapiens) (UniProt Q6PHR2); conditions: Compound concentration 1.0 uM
[22] = biological target: Dual specificity tyrosine-phosphorylation-regulated kinase 1B (Homo sapiens) (UniProt Q9Y463)
Dual specificity tyrosine-phosphorylation-regulated kinase 1B (Homo sapiens), sequence (Q9Y463 whole entry, looked up): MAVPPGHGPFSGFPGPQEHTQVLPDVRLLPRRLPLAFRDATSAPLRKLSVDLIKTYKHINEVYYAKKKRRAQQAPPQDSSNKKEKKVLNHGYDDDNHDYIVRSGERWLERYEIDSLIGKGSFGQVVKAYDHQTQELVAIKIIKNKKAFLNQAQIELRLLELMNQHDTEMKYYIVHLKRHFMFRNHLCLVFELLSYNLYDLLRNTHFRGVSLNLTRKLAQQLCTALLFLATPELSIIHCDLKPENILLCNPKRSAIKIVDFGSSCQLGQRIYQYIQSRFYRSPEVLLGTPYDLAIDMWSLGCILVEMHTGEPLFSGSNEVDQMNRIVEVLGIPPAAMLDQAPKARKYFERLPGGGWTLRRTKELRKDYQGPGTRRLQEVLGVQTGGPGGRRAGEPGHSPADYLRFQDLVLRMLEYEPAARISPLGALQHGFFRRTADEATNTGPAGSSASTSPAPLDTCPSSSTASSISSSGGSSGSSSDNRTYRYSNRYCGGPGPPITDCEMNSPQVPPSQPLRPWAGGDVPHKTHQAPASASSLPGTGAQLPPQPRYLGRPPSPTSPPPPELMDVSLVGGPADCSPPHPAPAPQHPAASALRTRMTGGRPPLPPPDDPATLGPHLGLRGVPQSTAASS

[23] = biological target: Rhodopsin kinase GRK1 (Homo sapiens) (UniProt Q15835); conditions: Compound concentration 1.0 uM
[24] = biological target: Focal adhesion kinase 1 (Homo sapiens) (UniProt Q05397); conditions: Compound concentration 1.0 uM
[25] = biological target: Serine/threonine-protein kinase PLK1 (Homo sapiens) (UniProt P53350); test: PLK1 DUNDEE kinase screen (BI); conditions: Compound concentration 10.0 uM
[26] = biological target: Casein kinase I isoform gamma-1 (Homo sapiens) (UniProt Q9HCP0); test: CSNK1G1 Invitrogen Lab (UK) kinase screen (BI); conditions: Compound concentration 1.0 uM
[27] = biological target: Carbonic anhydrase (Homo sapiens) (UniProt P00918+P43166+P00915+P07451+P23280+O43570+Q9ULX7+Q16790+P22748+Q8N1Q1+Q9Y2D0+P35218); test: CANHYDRASE Eurofins SafetyScreen44 (BI); format: protein assay; conditions: Compound concentration 10.0 uM
[28] = biological target: Alpha-1D adrenergic receptor (Homo sapiens) (UniProt P25100); conditions: Compound concentration 10.0 uM
[29] = biological target: TRAF2 and NCK-interacting protein kinase (Homo sapiens) (UniProt Q9UKE5); conditions: Compound concentration 1.0 uM
[30] = biological target: Voltage-dependent L-type calcium channel subunit alpha-1C (CA+/DILSI/RA) (Rattus norvegicus, UniProt P22002); test: CA+/DILSI/RA Eurofins SafetyScreen44 (BI); conditions: read-out: % Ctrl
Voltage-dependent L-type calcium channel subunit alpha-1C (CA+/DILSI/RA), sequence (P22002 whole entry): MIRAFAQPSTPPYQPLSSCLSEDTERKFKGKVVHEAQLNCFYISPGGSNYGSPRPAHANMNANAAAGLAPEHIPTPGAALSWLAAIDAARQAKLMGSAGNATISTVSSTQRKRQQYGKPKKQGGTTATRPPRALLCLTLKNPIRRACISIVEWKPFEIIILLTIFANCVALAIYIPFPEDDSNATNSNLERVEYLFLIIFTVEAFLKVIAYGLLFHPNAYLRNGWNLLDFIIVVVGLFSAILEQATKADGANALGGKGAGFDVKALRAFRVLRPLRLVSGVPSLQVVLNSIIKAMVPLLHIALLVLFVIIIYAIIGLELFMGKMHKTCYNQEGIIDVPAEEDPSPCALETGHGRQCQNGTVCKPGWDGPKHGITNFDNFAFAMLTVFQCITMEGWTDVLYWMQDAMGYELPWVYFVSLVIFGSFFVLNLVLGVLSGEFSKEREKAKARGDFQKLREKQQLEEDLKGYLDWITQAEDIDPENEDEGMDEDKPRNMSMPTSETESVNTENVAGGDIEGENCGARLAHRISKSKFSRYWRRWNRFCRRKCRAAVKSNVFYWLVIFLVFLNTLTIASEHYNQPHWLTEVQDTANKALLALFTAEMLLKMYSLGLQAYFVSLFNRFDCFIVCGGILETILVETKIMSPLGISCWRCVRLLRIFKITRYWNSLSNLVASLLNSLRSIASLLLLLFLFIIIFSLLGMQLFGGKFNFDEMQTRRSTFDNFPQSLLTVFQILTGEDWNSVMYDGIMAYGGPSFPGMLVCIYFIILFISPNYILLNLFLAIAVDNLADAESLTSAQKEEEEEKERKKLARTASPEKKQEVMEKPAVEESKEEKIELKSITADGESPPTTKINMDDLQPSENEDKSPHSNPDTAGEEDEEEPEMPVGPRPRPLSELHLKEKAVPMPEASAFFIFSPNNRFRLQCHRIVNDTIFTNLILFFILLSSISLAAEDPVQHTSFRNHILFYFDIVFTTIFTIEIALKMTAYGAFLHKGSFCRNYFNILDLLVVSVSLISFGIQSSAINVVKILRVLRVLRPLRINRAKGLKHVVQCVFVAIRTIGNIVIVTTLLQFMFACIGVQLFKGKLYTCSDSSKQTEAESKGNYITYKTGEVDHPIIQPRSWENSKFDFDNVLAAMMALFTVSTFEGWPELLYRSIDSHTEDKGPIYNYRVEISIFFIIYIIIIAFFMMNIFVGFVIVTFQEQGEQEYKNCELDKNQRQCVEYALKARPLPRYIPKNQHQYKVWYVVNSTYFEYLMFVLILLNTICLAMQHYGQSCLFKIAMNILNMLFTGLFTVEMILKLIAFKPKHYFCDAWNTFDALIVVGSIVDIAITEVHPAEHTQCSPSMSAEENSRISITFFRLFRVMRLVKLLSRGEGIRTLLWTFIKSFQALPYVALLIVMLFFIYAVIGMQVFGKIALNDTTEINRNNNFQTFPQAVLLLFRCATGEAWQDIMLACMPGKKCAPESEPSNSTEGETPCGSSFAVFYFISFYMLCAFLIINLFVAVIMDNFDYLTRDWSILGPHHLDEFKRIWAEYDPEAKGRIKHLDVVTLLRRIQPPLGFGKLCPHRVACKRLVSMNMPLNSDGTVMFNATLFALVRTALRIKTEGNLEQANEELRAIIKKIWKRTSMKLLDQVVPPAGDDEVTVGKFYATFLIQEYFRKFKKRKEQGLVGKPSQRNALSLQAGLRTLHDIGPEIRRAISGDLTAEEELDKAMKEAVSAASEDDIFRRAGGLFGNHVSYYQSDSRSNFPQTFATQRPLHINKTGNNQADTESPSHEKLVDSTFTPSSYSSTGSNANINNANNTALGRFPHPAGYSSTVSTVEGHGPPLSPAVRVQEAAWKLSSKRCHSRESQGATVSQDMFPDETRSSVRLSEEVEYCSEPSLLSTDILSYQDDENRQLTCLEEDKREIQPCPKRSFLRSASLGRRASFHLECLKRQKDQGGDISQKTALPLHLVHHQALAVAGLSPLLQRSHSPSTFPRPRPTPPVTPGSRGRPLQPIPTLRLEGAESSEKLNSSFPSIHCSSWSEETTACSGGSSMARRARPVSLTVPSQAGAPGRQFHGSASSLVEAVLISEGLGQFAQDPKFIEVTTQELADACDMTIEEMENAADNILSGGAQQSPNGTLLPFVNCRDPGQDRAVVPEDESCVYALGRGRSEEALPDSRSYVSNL

[31] = biological target: Tyrosine-protein kinase JAK2 (Homo sapiens) (UniProt O60674); conditions: Compound concentration 1.0 uM
[32] = biological target: Ephrin type-A receptor 3 (Homo sapiens) (UniProt P29320); test: EPHA3 Invitrogen Lab (UK) kinase screen (BI); conditions: Compound concentration 1.0 uM
[33] = biological target: CDK4/Cyclin D3 (Homo sapiens) (UniProt P11802+P30281); conditions: Compound concentration 1.0 uM
[34] = biological target: Non-receptor tyrosine-protein kinase TYK2 (Homo sapiens) (UniProt P29597); conditions: Compound concentration 1.0 uM
[35] = biological target: Serine/threonine-protein kinase Nek1 (Homo sapiens) (UniProt Q96PY6)
Serine/threonine-protein kinase Nek1 (Homo sapiens), sequence (Q96PY6 whole entry): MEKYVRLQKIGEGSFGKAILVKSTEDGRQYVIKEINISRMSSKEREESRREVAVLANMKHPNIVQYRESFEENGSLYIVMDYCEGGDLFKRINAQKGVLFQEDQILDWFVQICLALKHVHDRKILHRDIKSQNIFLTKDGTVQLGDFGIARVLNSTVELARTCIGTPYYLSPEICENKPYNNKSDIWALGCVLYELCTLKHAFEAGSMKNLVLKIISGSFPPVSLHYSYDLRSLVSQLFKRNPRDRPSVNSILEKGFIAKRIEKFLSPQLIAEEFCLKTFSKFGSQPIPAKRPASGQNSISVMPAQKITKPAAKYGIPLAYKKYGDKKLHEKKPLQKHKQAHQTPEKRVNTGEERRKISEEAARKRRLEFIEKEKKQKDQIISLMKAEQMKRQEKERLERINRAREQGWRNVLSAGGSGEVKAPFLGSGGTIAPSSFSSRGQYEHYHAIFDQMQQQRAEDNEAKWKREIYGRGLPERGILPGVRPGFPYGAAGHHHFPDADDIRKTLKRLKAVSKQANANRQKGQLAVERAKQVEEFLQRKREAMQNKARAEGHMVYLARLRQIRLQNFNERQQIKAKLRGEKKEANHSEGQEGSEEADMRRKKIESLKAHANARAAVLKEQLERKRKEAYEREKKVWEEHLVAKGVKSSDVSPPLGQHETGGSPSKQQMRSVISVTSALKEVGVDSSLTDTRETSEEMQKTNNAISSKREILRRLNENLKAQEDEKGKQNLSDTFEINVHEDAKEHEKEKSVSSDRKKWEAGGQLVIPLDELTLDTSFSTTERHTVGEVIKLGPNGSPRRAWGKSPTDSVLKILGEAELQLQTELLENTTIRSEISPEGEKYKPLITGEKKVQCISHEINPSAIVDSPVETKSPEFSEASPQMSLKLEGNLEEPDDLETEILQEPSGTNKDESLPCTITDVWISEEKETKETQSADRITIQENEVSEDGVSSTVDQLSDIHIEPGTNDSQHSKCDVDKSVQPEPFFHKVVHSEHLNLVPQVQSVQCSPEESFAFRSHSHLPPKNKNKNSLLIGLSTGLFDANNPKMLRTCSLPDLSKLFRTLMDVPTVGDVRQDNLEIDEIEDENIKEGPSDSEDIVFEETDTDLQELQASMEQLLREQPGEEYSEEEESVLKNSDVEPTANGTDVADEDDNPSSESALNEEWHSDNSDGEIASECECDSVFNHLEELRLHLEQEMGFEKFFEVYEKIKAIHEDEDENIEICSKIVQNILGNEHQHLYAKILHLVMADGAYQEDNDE

[36] = biological target: Tyrosine-protein kinase Lyn (Homo sapiens) (UniProt P07948); test: LYN B Invitrogen Lab (UK) kinase screen (BI); conditions: Compound concentration 1.0 uM
[37] = biological target: Ephrin type-B receptor 4 (Homo sapiens) (UniProt P54760); conditions: Compound concentration 1.0 uM
[38] = biological target: Cyclin-C/Cyclin-dependent kinase 19 (Homo sapiens) (UniProt Q9BWU1+P24863); test: CDK11/CYCLIN C Invitrogen Lab (UK) kinase screen (BI); format: protein-complex assay; conditions: Compound concentration 1.0 uM

Work on `CCC(F)(F)c1cc(N2CCC(S(C)(=O)=O)CC2)nc2sc(C(N)=O)c(N)c12` [BI-605906] yielded a residual activity [1] of 101%, an inhibition [2] of 1.69% and a residual activity [3] of 96%. It also gave a residual activity [4] of 101%, a residual activity [5] of 97% and a residual activity [6] of 90%. It also gave a residual activity [7] of 125%, a residual activity [8] of 102% and a residual activity [9] of 95%. It also gave a residual activity [10] of 88%, a residual activity [11] of 92% and a residual activity [12] of 84%. For the same molecule, the residual activity [13] was 62%, the residual activity ([14]; Compound concentration 1.0 uM) was 92% and the residual activity ([14]; Compound concentration 10.0 uM) was 107%. For the same molecule, the residual activity [15] was 94%, the residual activity [16] was 67% and the residual activity [17] was 98%. For the same molecule, the residual activity ([18]; Compound concentration 1.0 uM) was 92%, the residual activity ([18]; Compound concentration 10.0 uM) was 94% and the residual activity [19] was 92%. It also gave a residual activity [20] of 93%, a residual activity [21] of 95% and a residual activity ([22]; Compound concentration 1.0 uM) of 95%. It also gave a residual activity ([22]; Compound concentration 10.0 uM) of 91%, a residual activity [23] of 87% and a residual activity [24] of 87%. The residual activity [25] was 86.8%, the residual activity [26] was 102% and the residual activity [27] was 86%. The inhibition [28] was 36.7%, the residual activity [29] was 99% and the activity at 1 µM ([30]; compound concentration 1 uM) was 99% (not active). The activity at 3 µM ([30]; compound concentration 3 uM) was 111% (not active), the activity at 10 µM ([30]; compound concentration 10 uM) was 101% (not active) and the activity at 30 µM ([30]; compound concentration 30 uM) was 87% (not active). It also gave an activity at 100 µM ([30]; compound concentration 100 uM) of 45%, a residual activity [31] of 94% and a residual activity [32] of 85%. The residual activity [33] was 97%, the residual activity [34] was 93% and the residual activity ([35]; Compound concentration 1.0 uM) was 92%. It also gave a residual activity ([35]; Compound concentration 10.0 uM) of 30%, a residual activity [36] of 78% and a residual activity [37] of 90%. For the same molecule, the residual activity [38] was 83%.
